Where two headings read alike, the source gives them in different places.
Key:
HL-60 (TB) = experiment: cells; conditions: Homo sapiens, HL-60, 48 h
TK-10 = experiment: cells; conditions: Homo sapiens, TK-10, 48 h
NCI-H522 = experiment: cells; conditions: Homo sapiens, NCI-H522, 48 h
BT-549 = experiment: cells; conditions: Homo sapiens, BT-549, 48 h
DU-145 = experiment: cells; conditions: Homo sapiens, DU-145, 48 h
HT29 = experiment: cells; conditions: Homo sapiens, HT-29, 48 h
RPMI-7951 human melanoma = experiment: Neutral Red Assay, cell viability, RPMI-7951; conditions: Homo sapiens
HCT-15 = experiment: cells; conditions: Homo sapiens, HCT-15, 48 h
MDA-MB-231 = experiment: cells; conditions: Homo sapiens, MDA-MB-231, 48 h
T-47D = experiment: cells; conditions: Homo sapiens, T47D, 48 h
UACC-62 = experiment: cells; conditions: Homo sapiens, UACC-62, 48 h
PC-3 = experiment: cells; conditions: Homo sapiens, PC-3, 48 h
[1] = tested on: Sixty human tumor cell lines; conditions: NCI Anti-Tumor Screen, several cell types
A498 = experiment: cells; conditions: Homo sapiens, A498, 48 h
HOP-62 = experiment: cells; conditions: Homo sapiens, HOP-62, 48 h, read-out: Median Growth Inhibitory Concentration (GI50)
U251 = experiment: cells; conditions: Homo sapiens, U-251, 48 h
NCI-H226 = experiment: cells; conditions: Homo sapiens, NCI-H226, 48 h
ACHN = experiment: cells; conditions: Homo sapiens, 48 h
M14 = experiment: cells; conditions: Homo sapiens, M14, 48 h
SNB-75 = experiment: cells; conditions: Homo sapiens, SNB-75, 48 h
NCI/ADR-RES = experiment: cells; conditions: Homo sapiens, 48 h
SNB-19 = experiment: cells; conditions: Homo sapiens, SNB-19, 48 h
SN12C = experiment: cells; conditions: Homo sapiens, 48 h
SK-MEL-2 = experiment: cells; conditions: Homo sapiens, SK-MEL-2, 48 h
RXF 393 = experiment: cells; conditions: Homo sapiens, RXF 393, 48 h
MALME-3M = experiment: cells; conditions: Homo sapiens, 48 h
COLO 205 = experiment: cells; conditions: Homo sapiens, COLO 205, 48 h
SF-268 = experiment: cells; conditions: Homo sapiens, SF-268, 48 h
UACC-257 = experiment: cells; conditions: Homo sapiens, UACC-257, 48 h
[2] = read-out: Median Growth Inhibitory Concentration (GI50)
[3] = read-out: Median Lethal Concentration (LC50)
[4] = RPMI-7951, 72 h, read-out: Neutral Red Uptake, %
[5] = RPMI-7951, read-out: Cell Viability

Compound: O=C1C(=Cc2ccccc2O)CCCC1=Cc1ccccc1O [EF4, 2,6Bis(2-hydroxybenzylidene)cyclohexanone]
- GI50 (HL-60 (TB); [2]): 1.9 µM
- CC50 (HL-60 (TB); [3]): 53.5 µM
- GI50 (TK-10; [2]): 3 µM
- CC50 (TK-10; [3]): 22.6 µM
- GI50 (NCI-H522; [2]): 2.9 µM
- CC50 (NCI-H522; [3]): > 100 µM
- GI50 (BT-549; [2]): 2.4 µM
- CC50 (BT-549; [3]): 26.1 µM
- GI50 (DU-145; [2]): 1.4 µM
- CC50 (DU-145; [3]): 7 µM
- GI50 (HT29; [2]): 2.2 µM
- CC50 (HT29; [3]): 29.1 µM
- viability at 5 µM (RPMI-7951 human melanoma; [4]): 98%
- viability at 20 µM (RPMI-7951 human melanoma; [4]): 4%
- viability at 5 µM (RPMI-7951 human melanoma; [5]): 102%
- viability at 20 µM (RPMI-7951 human melanoma; [5]): 38%
- GI50 (HCT-15; [2]): 2.2 µM
- CC50 (HCT-15; [3]): > 100 µM
- GI50 (MDA-MB-231; [2]): 3.5 µM
- CC50 (MDA-MB-231; [3]): > 100 µM
- GI50 (T-47D; [2]): 1.7 µM
- CC50 (T-47D; [3]): 50.8 µM
- GI50 (UACC-62; [2]): 1.5 µM
- CC50 (UACC-62; [3]): 6.1 µM
- GI50 (PC-3; [2]): 2.1 µM
- CC50 (PC-3; [3]): 28.6 µM
- GI50 compared with CISPLATIN, in words [1]: lower GI50 than the chemotherapeutic agent CISPLATIN for several cell types
- LC50 compared with CISPLATIN, in words [1]: lower LC50 than the chemotherapeutic agent CISPLATIN for several cell types
- GI50 (A498; [2]): 2.2 µM
- CC50 (A498; [3]): 16.2 µM
- GI50 (HOP-62): 2.9 µM
- GI50 (U251; [2]): 2 µM
- CC50 (U251; [3]): 18.5 µM
- GI50 (NCI-H226; [2]): 19 µM
- CC50 (NCI-H226; [3]): > 100 µM
- GI50 (ACHN; [2]): 3.3 µM
- CC50 (ACHN; [3]): 32.7 µM
- GI50 (M14; [2]): 1.9 µM
- CC50 (M14; [3]): 13.2 µM
- GI50 (SNB-75; [2]): 2 µM
- CC50 (SNB-75; [3]): 21.5 µM
- GI50 (NCI/ADR-RES; [2]): 2.7 µM
- CC50 (NCI/ADR-RES; [3]): > 100 µM
- GI50 (SNB-19; [2]): 3.2 µM
- CC50 (SNB-19; [3]): 42.3 µM
- GI50 (SN12C; [2]): 2.3 µM
- CC50 (SN12C; [3]): 21.5 µM
- GI50 (SK-MEL-2; [2]): 2.4 µM
- CC50 (SK-MEL-2; [3]): 25.3 µM
- GI50 (RXF 393; [2]): 0.5 µM
- CC50 (RXF 393; [3]): 30.8 µM
- GI50 (MALME-3M; [2]): 2.3 µM
- CC50 (MALME-3M; [3]): 24.3 µM
- GI50 (COLO 205; [2]): 2 µM
- CC50 (COLO 205; [3]): 8.7 µM
- GI50 (SF-268; [2]): 3 µM
- CC50 (SF-268; [3]): 53.2 µM
- GI50 (UACC-257; [2]): 2.9 µM
- CC50 (UACC-257; [3]): 57.8 µM

Source: patent US7371766B2, “Curcumin analogs with anti-tumor and anti-angiogenic properties” (Emory University, priority 1999, dated 2008)
